This passage reports TGI and GI50 results from PubChem BioAssay (NCI).

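Tested at 5 concentrations; 48 h exposure; 96-well plates; endpoints linearly interpolated, else capped at highest concentration. GI50 = concentration required for 50% inhibition of growth. TGI marks complete inhibition of growth.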

Among the test systems are HL-60(TB) leukemia; PC-3 prostate; HCT-116 colon; HOP-62 NSCLC; 786-0 renal; UACC-62 melanoma; SK-MEL-28 melanoma; SK-MEL-2 melanoma; EKVX NSCLC; A498 renal.
Test in all cases: NCI-60 cell line screen, 48 h

Take `CC1(C)CC(C)(C)C1=NNC(N)=O`: the TGI with HL-60(TB) leukemia, with PC-3 prostate, in the assay on HCT-116 colon, with HOP-62 NSCLC, with 786-0 renal and in the assay with UACC-62 melanoma was over 100 µM throughout. Moreover, the TGI in the assay with SK-MEL-28 melanoma, with SK-MEL-2 melanoma, in the assay with EKVX NSCLC and in the assay with A498 renal was over 100 µM throughout.

Take `CC1=C(CO)C(=O)O[C@@H]([C@@H](C)[C@H]2CC[C@H]3[C@@H]4C[C@@H](O)[C@@]5(O)CC=CC(=O)[C@]5(C)[C@H]4CC[C@]23C)C1`: the TGI in the assay with HL-60(TB) leukemia was over 100 µM; in the assay with PC-3 prostate, over 100 µM; in the assay on HCT-116 colon, 55.5 µM; with HOP-62 NSCLC it was over 100 µM; with 786-0 renal it was 90.8 µM; in the assay on UACC-62 melanoma it was over 100 µM. Further, the TGI with SK-MEL-28 melanoma was over 100 µM; in the assay with SK-MEL-2 melanoma it was over 100 µM; with EKVX NSCLC, over 100 µM; in the assay with A498 renal, 39.5 µM.

`CCc1ccc(NC(=O)COC(=O)c2cc([N+](=O)[O-])ccc2Sc2nnnn2C)cc1`: the GI50 in the assay with HL-60(TB) leukemia was 18.8 µM; with PC-3 prostate, 15.2 µM; with HCT-116 colon, 6.76 µM; in the assay with HOP-62 NSCLC, 15.2 µM; in the assay on 786-0 renal, 21.1 µM; in the assay with UACC-62 melanoma, 15.2 µM. Moreover, the GI50 with SK-MEL-28 melanoma was 9.94 µM; in the assay with SK-MEL-2 melanoma, 23.3 µM; in the assay on EKVX NSCLC, 29.5 µM; in the assay with A498 renal, 21.5 µM. The TGI came out at 49.7 µM in the assay on HL-60(TB) leukemia; 84.5 µM with PC-3 prostate; 20.2 µM with HCT-116 colon; 36 µM in the assay on HOP-62 NSCLC; 72.9 µM with 786-0 renal; 48 µM with UACC-62 melanoma. For the same molecule, the TGI was 28.8 µM with SK-MEL-28 melanoma, over 100 µM in the assay with SK-MEL-2 melanoma, over 100 µM in the assay with EKVX NSCLC and 74.9 µM in the assay on A498 renal.

For the molecule `CC#CC(=O)SCCNC(=O)CC`, the TGI in the assay with HL-60(TB) leukemia, with PC-3 prostate, in the assay with HCT-116 colon, in the assay with HOP-62 NSCLC, in the assay with 786-0 renal and in the assay with UACC-62 melanoma was over 10 µM in each case. The TGI in the assay on SK-MEL-28 melanoma, with SK-MEL-2 melanoma, in the assay on EKVX NSCLC and in the assay with A498 renal was over 10 µM in each case.

Take `CCN(CC)Cc1ccc(Nc2nccc(-c3cnn4ncccc34)n2)cc1`: the GI50 in the assay on HL-60(TB) leukemia is 0.00687 µM; with PC-3 prostate, 0.0184 µM; in the assay on HCT-116 colon it was 0.00984 µM; in the assay on HOP-62 NSCLC, 0.0145 µM; with 786-0 renal, 0.0133 µM; in the assay with UACC-62 melanoma, 0.0188 µM. The GI50 in the assay with SK-MEL-28 melanoma is 0.015 µM; in the assay on SK-MEL-2 melanoma, 0.0208 µM; in the assay on EKVX NSCLC, 0.0498 µM; with A498 renal, 0.0144 µM. The TGI was 0.0229 µM in the assay with HL-60(TB) leukemia; over 25 µM with PC-3 prostate; over 25 µM with HCT-116 colon; over 25 µM in the assay with HOP-62 NSCLC; over 12.9 µM in the assay on 786-0 renal; 0.0694 µM with UACC-62 melanoma. For the same molecule, the figures for the TGI in the assay on SK-MEL-28 melanoma, with SK-MEL-2 melanoma and in the assay on A498 renal were 0.0727 µM, 0.0704 µM and 0.0452 µM, respectively.

Turning to `C1CN(SSN2CCOCC2)CCO1`, the GI50 in the assay with HL-60(TB) leukemia was 32.2 µM; with PC-3 prostate it was 25 µM; in the assay on HCT-116 colon, 20 µM; in the assay with HOP-62 NSCLC, 78.5 µM; in the assay with 786-0 renal, 21 µM; in the assay on UACC-62 melanoma, 58.7 µM. In addition, the GI50 in the assay on SK-MEL-28 melanoma, with SK-MEL-2 melanoma, in the assay with EKVX NSCLC and in the assay with A498 renal was over 100 µM throughout. The TGI with HL-60(TB) leukemia is over 100 µM; with PC-3 prostate, over 100 µM; in the assay with HCT-116 colon, 40.6 µM; with HOP-62 NSCLC, over 100 µM; in the assay on 786-0 renal it was 37.1 µM; with UACC-62 melanoma, over 100 µM. The TGI in the assay with SK-MEL-28 melanoma, with SK-MEL-2 melanoma, with EKVX NSCLC and in the assay with A498 renal was over 100 µM each time.

`O=C(NN1C(=O)CSC12CCCC2)c1[nH]c2ccc(Br)cc2c1-c1ccccc1`: the GI50 is 38.6 µM with PC-3 prostate; 26.7 µM with HCT-116 colon; 62.5 µM in the assay with HOP-62 NSCLC; 22.3 µM with 786-0 renal; 19.7 µM in the assay with UACC-62 melanoma; 44 µM with SK-MEL-28 melanoma. Moreover, the GI50 is 69 µM in the assay with SK-MEL-2 melanoma, over 100 µM with EKVX NSCLC and over 100 µM in the assay on A498 renal. Moreover, the TGI in the assay with PC-3 prostate, in the assay on HCT-116 colon, with HOP-62 NSCLC, with 786-0 renal, with UACC-62 melanoma and in the assay with SK-MEL-28 melanoma was over 100 µM throughout. Also, the TGI in the assay with SK-MEL-2 melanoma, with EKVX NSCLC and in the assay with A498 renal was over 100 µM in each case.

Regarding `C[CH2][Sn]([CH2]C)([O]C(=O)C(OC(C)=O)c1ccccc1)[O]C(=O)C(OC(C)=O)c1ccccc1` (stereo not drawn), the GI50 with HL-60(TB) leukemia was 10 µM; in the assay with PC-3 prostate, over 100 µM; in the assay with HCT-116 colon, 92.6 µM; in the assay on HOP-62 NSCLC, over 100 µM; in the assay on 786-0 renal it was 19.9 µM; in the assay on SK-MEL-28 melanoma it was 18.3 µM. For the same molecule, the GI50 in the assay on SK-MEL-2 melanoma is 54.6 µM; in the assay with EKVX NSCLC, over 100 µM; with A498 renal, 19.8 µM. Also, the TGI with HL-60(TB) leukemia was 29.8 µM; with PC-3 prostate, over 100 µM; in the assay on HCT-116 colon, over 100 µM; with HOP-62 NSCLC, over 100 µM; with 786-0 renal, 34.8 µM; in the assay with SK-MEL-28 melanoma, 40.9 µM. Further, the values for the TGI in the assay on SK-MEL-2 melanoma, in the assay on EKVX NSCLC and in the assay with A498 renal were over 100 µM, over 100 µM and 35.6 µM, respectively.

`Cc1ccc(CNc2c3ccccc3nc3cc(NC(=O)CCN4CCCC4)ccc23)cc1`: the GI50 is 0.515 µM with PC-3 prostate; 0.39 µM in the assay with HCT-116 colon; 0.68 µM in the assay with HOP-62 NSCLC; 0.732 µM in the assay on 786-0 renal; 1.4 µM in the assay on UACC-62 melanoma; 1.66 µM in the assay with SK-MEL-28 melanoma. Besides, the GI50 with SK-MEL-2 melanoma was 1.69 µM; in the assay on EKVX NSCLC it was 0.862 µM; in the assay with A498 renal it was 1.13 µM. Further, the TGI was found to be 1.83 µM in the assay on PC-3 prostate; 1.42 µM in the assay with HCT-116 colon; 2.38 µM in the assay on HOP-62 NSCLC; 2.04 µM with 786-0 renal; 2.74 µM in the assay with UACC-62 melanoma; 3.09 µM in the assay with SK-MEL-28 melanoma. The TGI turned out to be 3.23 µM in the assay with SK-MEL-2 melanoma, 2.25 µM in the assay with EKVX NSCLC and 2.38 µM in the assay with A498 renal.
